Assay: Human HepG2 cell viability assay in 384 well format
Type: toxicity, cell-based
Parameters: dose 125 nL, time 70.5 hour; cytotoxicity at 70.5 h: concentration not given beside the values
Conditions: HepG2 cells, read-out: Inhibition

Compound	cytotoxicity at 70.5 h
CCCN1CCCn2nc(CNS(=O)(=O)c3ccc(F)cc3)cc2C1	4.7%
Cc1cccc(C(C(=O)NC(C)(C)CN2CCOCC2)N(C)C)c1 (centres undefined)	25.2%
Cc1ccc2nccc(C(=O)N3CCOC(CCN(C)C)C3)c2c1 (centres undefined)	15.6%
O=S(=O)(c1ccc(-c2cnco2)cc1)N1CCCC(O)(CO)CC1 (centres undefined)	12.5%
O=C(c1ccc(C2CCCN2)s1)N1CC=CC1 (centres undefined)	-6.78%
Cc1nc(NCCSc2cnn[nH]2)c2c(C)noc2n1	7.78%
Cc1nnc(CN2CCCC(CCc3ccccc3C(F)(F)F)C2)o1 (centres undefined)	-7.48%
Cc1cnccc1N1CCN(C(=O)CCCN2CCCCC2)CC1	-3.26%
CC(C)N(C)C(=O)CN1C(=O)OC[C@@H]1c1ccccc1	0.286%
COCC(=O)N1CCCC1c1ccc(C(=O)NCCN2CCCCC2)s1 (centres undefined)	-10.2%
CC(NC1CCCC1)c1ccccc1-n1cccn1 (centres undefined)	-6.22%
N#CC1(C(=O)N2C[C@H](Nc3ncccn3)[C@@H](C3CC3)C2)CCOCC1	-15.6%
CSc1ccc(CNC(=O)C2CC(=O)N(C(C)(C)C)C2)cc1 (centres undefined)	-3.39%
O=C(c1cn(CC(=O)N2CCc3[nH]cnc3C2)c2ccccc12)C1CC1	-5.73%
O=C(C1CCC1)N1CCc2[nH]cnc2C12CCN(C1CCOCC1)CC2	-0.358%
O=C(Cc1cc2c(cc1Cl)OCCO2)N1CC[C@H](CO)[C@H](O)C1	-5.99%
CC(C)[C@H]1CN(Cc2ccccn2)C[C@@H]1NC(=O)CCS(C)(=O)=O	-4.06%
Cc1csc(CN2CCC(C(=O)O)(n3ccc(-c4ccco4)n3)CC2)n1	-7.21%
Cc1cccc(-n2ncc3c2CCCC3NCc2cnn(C)c2C)c1C (centres undefined)	3.5%
Cn1c(=O)oc2ccc(NC(=O)N3CCOCC3)cc21	31.6%
COc1cccc(-c2c[nH]c(C)n2)c1F	-11.2%
O=C(CCn1ccc(=O)[nH]c1=O)N1CCC(OCc2cccnc2)CC1	27.2%
CN1CCCN(C(=O)c2cc(CN(C)CCc3ccccc3)on2)CC1	-10.4%

Compound	cytotoxicity at 70.5 h
CN(C)c1ncnc2c1CCN(S(=O)(=O)c1cccc(Cl)c1Cl)C2	-4.66%
O=C1CCC2(CCN(Cc3cscn3)CC2)CN1CCCO	-8.82%
Cc1cnc(C)c(N2CCC(c3nnc(CN(C)C)n3C3CC3)CC2)n1	11.2%
CCN(Cc1nccn1C)C(=O)c1ccc(NCCc2c[nH]cn2)nc1	4.71%
CCN(C)Cc1n[nH]c(=O)n1-c1cc(F)ccc1C	-5.83%
O=C(Cn1nc2ccccc2n1)N1CCCC(O)(CN2CCCC2)C1 (centres undefined)	13.9%
CCOc1ccc(C(=O)CCC(=O)NCCc2nncn2CC)cc1C	22.5%
COCCOC(=O)N1CCn2nc(CN(C)Cc3nccs3)cc2C1	13.8%
Cc1cccc(C2CCCN(C(=O)CN3CCC(C(N)=O)CC3)C2)c1 (centres undefined)	-4.32%
COCCCN(C)C(=O)Cn1cccc(OC)c1=O	-10.6%
CC1(C)CN(CC(=O)NCc2ccccc2F)C[C@]1(C)O	-9.16%
O=C(c1ccco1)N1CCc2c(nc(-c3ccncc3)[nH]c2=O)C1	13%
CN(C)CCC1CN(C(=O)c2cccc3c2OCC3)CCO1 (centres undefined)	30%
CC(C)[C@]1(O)CN(C(=O)COCC(N)=O)C[C@H]1C	23.2%
O=c1c2cccc(F)c2ncn1CCN1CCNCC1	-2.04%
Cc1c(Cl)c(C(=O)N2CC(c3cccnc3)C2)nn1C	-1.27%
O=C(c1cncc(N2CCC3(CCCNC3)C2)n1)N1CCCC1 (centres undefined)	-5.37%
OCC1(CCOc2ccccc2)CCCN(c2ccc(Cl)cn2)C1 (centres undefined)	-2.17%
CN(C)c1nc2n(c(=O)n1)CCN2C(=O)Nc1ccccc1	-5.25%
O=C(Nc1ccccc1C(=O)NCCCN1CCOCC1)c1ccco1	-6.18%
CN(C(=O)c1ccc2c(c1)nc(N1CC[C@H](O)C1)n2C)C1CCSCC1	24.9%
COc1ccc(Cl)cc1S(=O)(=O)N(C)CC(N)=O	-5%
O=C(COc1cccnc1)N1CCOC(C(F)(F)F)C1 (centres undefined)	-0.535%

Compound	cytotoxicity at 70.5 h
CC(=O)N1CCOC(CNC(=O)c2cccc(CCC(C)(C)O)c2)C1 (centres undefined)	8.87%
COCc1ncc(CN2CC[C@@H](NC(=O)c3cccnc3)[C@H](O)C2)cn1	20.2%
CC(C)(C)NC(=O)c1ccccc1NC(=O)c1ccncc1	-5.9%
CCN(CC)CCn1ccnc1-c1[nH]cnc1C	3.84%
COc1cccc(-c2noc3c2CN(c2nc(C)ncc2C)CC3)c1	-9.61%
N[C@H]1CN(Cc2cnc(N3CCCC3)nc2)C[C@@H]1C1CC1	-5.36%
COC(=O)c1ccc(OC)c(CN2CCN(CC(C)C)C(=O)C2C)c1 (centres undefined)	26.8%
CCCc1cc(CNC2CCN(c3nc4ccccc4s3)CC2)on1	-6.6%
O=c1c2ccccc2ncn1Cc1cc(C2CC2)[nH]n1	13.8%
CN(C)C(=O)C1CCCN1C(=O)c1ccc(Cn2ccnc2)o1 (centres undefined)	10.3%
CCn1c(CC2CCNCC2)nn(Cc2ccc(C(=O)NC)o2)c1=O	-11.7%
CC1CN(S(=O)(=O)c2ccc(C(=O)NCC(F)F)cc2)CCCO1 (centres undefined)	-0.0719%
Cn1ncc(C2CC(=O)NCc3nc4sccn4c32)c1C1CC1 (centres undefined)	-12.3%
CCc1c(C)nc(C)nc1N1C[C@@H](CN(C)C)[C@@H](CO)C1	-1.15%
CCCNS(=O)(=O)Cc1ccc(Br)cc1	-7.66%
Cc1ccc2cc(CN(C)Cc3ccccn3)c(=O)[nH]c2c1	12.4%
CCc1ccccc1-c1cc(OC)nc(N)n1	-8.45%
CC(C)CC(O)C1CCN(C(=O)c2ccc(C(F)(F)F)nc2O)CC1 (centres undefined)	-5.89%
CCN(C)C(=O)c1cccc(S(=O)(=O)NCCc2nc(C)cc(=O)[nH]2)c1	-22.4%
CC(C)[C@H]1CN(CCCO)C[C@@H]1NC(=O)CCC(F)(F)F	-7.33%
CC(Cn1ccnc1)NC1CCN(Cc2cccc(O)c2)CC1 (centres undefined)	-4.85%
CCN(CC)C(CNCc1ccc(O)cc1)c1ccco1 (centres undefined)	27%
CCC(C(=O)N(C)CCC1=CCN(C)CC1)c1ccccc1 (centres undefined)	57.9%

Compound	cytotoxicity at 70.5 h
CC(=O)N1CCN(Cc2ccc(C(F)(F)F)c(F)c2)CC(O)C1 (centres undefined)	0.294%
CNC(=O)[C@@H]1C[C@@H](N)CN1C(=O)CCSCc1ccccc1	-4.11%
CCN1CC2(CCN(CC3COCCO3)CC2)OC1=O (centres undefined)	44.4%
CCc1ccc(OCC(=O)N2CCN(CC)CC2)cc1	-6.61%
CN(Cc1cccnc1)CC1CCOc2ccccc2C1 (centres undefined)	-5.68%
COCCn1ccnc1C1CCCN(C(=O)c2cccnc2SC)C1 (centres undefined)	13%
Cc1ccc2nc(C3CCCN3C(=O)c3cc(=O)[nH]c(=O)[nH]3)[nH]c2c1 (centres undefined)	30.8%
O=C1[C@@H]2CN(c3ncc(Cl)cc3F)C[C@]2(C(=O)O)CN1CC1CC1	-5.98%
CC(C)(O)CCc1cccc(C(=O)N[C@@H](CO)C(N)=O)c1	3.89%
Cc1cc(-c2n[nH]c3c2CN(S(=O)(=O)c2ccsc2)CC3)c(C)o1	-9.27%
COc1ccc(OCc2cc(C(=O)N3CC=CC3)n[nH]2)c(Cl)c1	-3%
O=C(CN1CCOc2ccccc2C1)NCc1cc2n(n1)CCCNC2	-2.45%
COc1ccccc1OCc1cc(C(=O)N2CCC(C(C)O)CC2)n[nH]1 (centres undefined)	-5.66%
COc1cccc2c1OCC(CNC(=O)COCC(F)(F)C(F)F)C2 (centres undefined)	8.83%
COCCc1noc(Cn2ccc3ccccc3c2=O)n1	-0.672%
CCOC(=O)N1CCN(CC(=O)Nc2nnc(CC)s2)CC1	-4.24%
O=C(O)C(c1ccc2c(c1)OCCO2)N1CCC(N2CCOCC2)CC1 (centres undefined)	0.0244%
CCc1nnc(CNC(=O)CCC2CCCCN2C)s1 (centres undefined)	6.71%
Cc1nsc(NC(=O)N2CCCCC2CCCO)n1 (centres undefined)	-1.47%
Cc1cc(C2CCC2)nc(N2CCC3(CCCNC3=O)C2)n1 (centres undefined)	-18.8%
Cc1oc(C(C)C)cc1C(=O)N1CCN(c2cnn(C)c(=O)c2)CC1	-3.48%
c1ccc2c(c1)CC(n1ccnc1-c1cc3n(n1)CCNC3)CO2 (centres undefined)	1.41%
COc1ccccc1N1CCN(C(=O)CCn2ccnc2C)CC1(C)C	21.5%

Compound	cytotoxicity at 70.5 h
Cc1cc(CN2CCC(c3nccn3C(C)C)CC2)ccc1F	15.8%
c1ccc(CCCN2CCCC(Nc3cnc4ccccc4n3)C2)cc1 (centres undefined)	-2.78%
Cc1cc(=O)n(CC(=O)NC2CCCCC2)c2ccccc12	-8.81%
Cc1nc(CN2CCCN(CCOc3ccc(C#N)cc3)CC2)no1	-0.262%
CC(C)c1nccn1C1CCCN(C(=O)CN(C)C2CC2)C1 (centres undefined)	-2.03%
O=C(NCCn1ccnc1)c1ccn(-c2ccc(F)cc2)n1	-2.38%
O=C(NCCn1ccnc1)c1ccn(-c2ccccc2F)n1	13.4%
CC(C)c1nccn1C1CCCN(C(=O)CCc2cscn2)C1 (centres undefined)	-6.33%
CC(C)c1nccn1C1CCCN(C(=O)CCCc2ccccn2)C1 (centres undefined)	-10.5%
Cc1nc(CN2CCCC2c2c(C)nn(C)c2Cl)oc1C (centres undefined)	19.6%
Cc1noc(C)c1CN1CCCC1c1c(C)nn(C)c1Cl (centres undefined)	-2.34%
O=C(NCC1CCOC1)N1CCN(Cc2ccc3c(c2)OCO3)CC1 (centres undefined)	3.28%
O=C(NCC1CCCO1)N1CCN(Cc2ccc3c(c2)CCO3)CC1 (centres undefined)	-9.76%
Cc1nc(C(C)(C)C)sc1C(=O)NCCNc1ncccn1	-8.27%
Cc1cc(C)c(CNC(=O)N(C)Cc2ccoc2)c(=O)[nH]1	-2.92%
Cc1cc(C)c(CNC(=O)N(C)Cc2ccc(F)cc2)c(=O)[nH]1	18.3%
Cc1cc(C)c(CNC(=O)N(C)Cc2ccc3c(c2)OCO3)c(=O)[nH]1	-3.96%
COc1cccc(CN(C)C(=O)NCc2c(C)cc(C)[nH]c2=O)c1	-4.51%
CC(NC(=O)NCc1ccccc1)(C(=O)O)c1ccco1 (centres undefined)	-9.81%
CCOc1ccnc(N2CCN(C(=O)c3ccoc3)CC2)n1	18.6%
Cc1nnc2n1CCN(C(=O)c1cc(C)n(-c3cccnc3)c1C)C2	-1.82%
COc1cc(CNCC(C)O)cc(Cl)c1OCc1ccc(C)cc1 (centres undefined)	39%

Reference: ChEMBL document CHEMBL3507680, “University of Dundee, Gates Library screen for HepG2 cell viability”
